# Test results reported in PMC10006169, “A phase I trial of LXS196, a protein kinase C (PKC) inhibitor, for metastatic uveal melanoma” (British Journal of Cancer, 2023).
# Experiments:
# [1] = tested on: patients with MUM; assay: Patient disposition, duration of exposure and dose interruptions; format: in vivo
# Description: During dose escalation, patients received oral LXS196 either once daily (QD; 100–1000 mg) or twice daily (BID; 200–400 mg) in 28-day cycles until disease progression, intolerable toxicity or withdrawal of consent (Supplementary Fig. 1). Dosing was omitted on the second day of the first cycle (C1D2) to allow for longer post-dose sampling in order to better characterise PK. LXS196 was given on an empty stomach, at least 1 h before or 2 h after a meal. Dose escalation was guided by safety, PK data and a two-parameter Bayesian Logistic Regression Model (BLRM) employing escalation with overdose control (EWOC) criteria. The DLT period lasted 28 days after the first dose of LXS196. […] Upon determination of the MTD/RDE, the expansion part of the study was opened to further evaluate the safety, tolerability, PK and PD of LXS196 at the RDE in patients with MUM. No hypothesis testing was planned in this study, and therefore, no formal sample size calculation was needed. The sample size was selected to ensure the BLRM had adequate operating characteristics when selecting the MTD/RDE.
# Routine safety assessments, including laboratory assessments, physical examinations, vital signs and electrocardiograms (ECGs), were conducted at regular intervals throughout the study and more frequently as needed following patient assessment by the treating physician. Adverse events (AEs) were assessed continuously according to the National Cancer Institute Common Terminology Criteria for Adverse Events (NCI-CTCAE) v4.03.
# [2] = tested on: 92.1 human UM xenograft; parameters: method as in PMID 27507190; details: doses below MTD; cited from earlier work
structure (smiles),measurement,setting,value
CC1(N)CCN(c2cccnc2NC(=O)c2nc(-c3ncccc3C(F)(F)F)cnc2N)CC1 [LXS196],Dose interruption by reason: adverse event,[1]; 300 mg BID (RDE) n=18,3 (16.7) n (%)
same,Dose interruption by reason: patient/guardian decision,[1]; 300 mg BID (RDE) n=18,0 n (%)
same,Dose interruption by reason: physician decision,[1]; 300 mg BID (RDE) n=18,0 n (%)
same,With at least one dose interruption,[1]; 300 mg BID (RDE) n=18,3 (16.7) n (%)
same,With more than one dose interruption,[1]; 300 mg BID (RDE) n=18,1 (5.6) n (%)
same,With only one dose interruption,[1]; 300 mg BID (RDE) n=18,2 (11.1) n (%)
same,Dose interruption by reason: adverse event,[1]; All BID n=30,5 (16.7) n (%)
same,Dose interruption by reason: patient/guardian decision,[1]; All BID n=30,1 (3.3) n (%)
same,Dose interruption by reason: physician decision,[1]; All BID n=30,0 n (%)
same,With at least one dose interruption,[1]; All BID n=30,6 (20) n (%)
same,With more than one dose interruption,[1]; All BID n=30,3 (10.0) n (%)
same,With only one dose interruption,[1]; All BID n=30,3 (10) n (%)
same,Dose interruption by reason: adverse event,[1]; All QD n=38,11 (28.9) n (%)
same,Dose interruption by reason: patient/guardian decision,[1]; All QD n=38,0 n (%)
same,Dose interruption by reason: physician decision,[1]; All QD n=38,1 (2.6) n (%)
same,With at least one dose interruption,[1]; All QD n=38,11 (28.9) n (%)
same,With more than one dose interruption,[1]; All QD n=38,5 (13.2) n (%)
same,With only one dose interruption,[1]; All QD n=38,6 (15.8) n (%)
same,Dose interruption by reason: adverse event,[1]; All patients N=68,16 (23.5) n (%)
same,Dose interruption by reason: patient/guardian decision,[1]; All patients N=68,1 (1.5) n (%)
same,Dose interruption by reason: physician decision,[1]; All patients N=68,1 (1.5) n (%)
same,With at least one dose interruption,[1]; All patients N=68,17 (25) n (%)
same,With more than one dose interruption,[1]; All patients N=68,8 (11.8) n (%)
same,With only one dose interruption,[1]; All patients N=68,9 (13.2) n (%)
same,Tumour effect as single agent,[2],tumour regression
